Data reported in ChEMBL document CHEMBL1201862, “PubChem BioAssay data set” (2004).
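Cells were grown in 96-well plates and exposed to each compound for 48 hours at five concentrations; endpoints were interpolated linearly between bracketing concentrations, or set to the highest concentration if not reached. GI50 is the concentration that inhibits growth by half.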 Active and inactive are the calls of the source. No stated cut-off is given here; in the data, active = GI50 up to about 1.1 µM and inactive = higher.

Experiments:
Assay in all cases: DTP human tumour cell line panel, 48 h
[1] = tested on: NCI-H460
[2] = tested on: NCI-H226
[3] = tested on: SNB-75
[4] = tested on: A498
[5] = tested on: ACHN
[6] = tested on: KM12
[7] = tested on: A549
[8] = tested on: SF-268
[9] = tested on: M19-MEL
[10] = tested on: LOX IMVI
[11] = tested on: EKVX
[12] = tested on: NCI-H522
[13] = tested on: SK-OV-3
[14] = tested on: SF-295
[15] = tested on: HOP-92

Measured: GI50

[N-]=[N+]=Nc1ccc(CCN2CCN(c3cccc(C(F)(F)F)c3)CC2)cc1I
inactive: [1] 62.4 µM | [2] > 100 µM | [3] 41.7 µM | [4] > 100 µM | [5] > 100 µM | [6] 43.8 µM | [7] 95.7 µM | [8] > 100 µM | [9] 83 µM | [10] > 100 µM | [11] > 100 µM | [12] 27.7 µM | [13] > 100 µM | [14] > 100 µM

CCOC(=O)NN(C(=O)OCC)C(C(=O)c1ccc(Cl)cc1)=C1NCCN1
inactive: [1] > 100 µM | [2] > 100 µM | [3] 52.4 µM | [4] > 100 µM | [15] > 100 µM | [5] > 100 µM | [6] > 100 µM | [7] > 100 µM | [8] > 100 µM | [9] > 100 µM | [10] > 100 µM | [11] > 100 µM | [12] > 100 µM | [13] > 100 µM | [14] > 100 µM

COc1ccccc1/N=N/C(C(=O)c1ccccc1)C(=O)c1ccccc1
inactive: [1] 19.6 µM | [2] 14.4 µM | [3] 19.9 µM | [4] 25.2 µM | [5] 21.6 µM | [6] 29.2 µM | [7] 22.4 µM | [8] 21.1 µM | [9] 15 µM | [10] 17.9 µM | [11] 21.4 µM | [12] 16.1 µM | [13] 45.1 µM | [14] 17.8 µM

CC(=O)O[C@H]1CC[C@@]2(C)C(=C/C(=N\[N+](=O)[O-])[C@H]3C4CCC([C@H](C)CCCC(C)C)[C@@]4(C)CCC32)C1 (stereo partly drawn)
inactive: [1] > 100 µM | [2] > 100 µM | [3] > 100 µM | [4] > 100 µM | [15] > 100 µM | [5] > 100 µM | [7] > 100 µM | [8] > 100 µM | [9] > 100 µM | [10] > 100 µM | [11] > 100 µM | [12] > 100 µM | [13] > 100 µM | [14] > 100 µM

CCOC(=O)NC(=O)c1cn(-c2ccc(CCOC(=O)NCCCCCCNC(=O)OCCc3ccc(-n4c(=O)[nH]cc(C(=O)NC(=O)OCC)c4=O)cc3)cc2)c(=O)[nH]c1=O
inactive: [1] 28.8 µM | [3] 27.5 µM | [4] > 80.4 µM | [15] > 72.4 µM | [5] 29.4 µM | [6] > 100 µM | [7] > 100 µM | [8] > 49 µM | [9] 47 µM | [10] 56.6 µM | [11] 53.2 µM | [12] 22.4 µM | [13] 47.6 µM | [14] 31.6 µM

N#CC(NNC(=O)Cc1ccccc1)c1ccc(O)cc1 (stereo not drawn)
inactive: [1] > 100 µM | [2] > 100 µM | [3] 28.2 µM | [15] 85.9 µM | [5] > 100 µM | [6] > 100 µM | [7] > 100 µM | [8] > 100 µM | [9] > 100 µM | [10] > 100 µM | [12] > 100 µM | [13] > 100 µM | [14] > 100 µM

CCOC(=O)C1=C(Nc2ccc(Br)cc2)OC/C1=N\NC(=O)c1ccccc1O
inactive: [1] 12.9 µM | [2] 38.9 µM | [4] > 47.3 µM | [5] 5.13 µM | [6] 21.5 µM | [7] 4.06 µM | [8] 12 µM | [9] 35 µM | [10] 5.37 µM | [11] 18.8 µM | [12] 7.98 µM | [13] 12.8 µM | [14] 14.2 µM

O=C(NC1C=Nc2ccccc2NC1=O)c1ccccc1Cl (stereo not drawn)
inactive: [1] 44 µM | [2] 94 µM | [3] 50 µM | [4] 28.8 µM | [15] 31.4 µM | [5] 39.6 µM | [6] 50.7 µM | [7] 48 µM | [8] 51.9 µM | [9] 57 µM | [10] 18.2 µM | [11] 74.8 µM | [12] 20.1 µM | [13] > 100 µM | [14] 57.1 µM

Oc1cc(C2OCCCO2)cc(O)c1O
inactive: [1] > 100 µM | [2] > 100 µM | [3] > 100 µM | [4] > 100 µM | [5] > 100 µM | [6] > 100 µM | [7] > 100 µM | [8] > 100 µM | [9] > 100 µM | [11] > 100 µM | [12] > 100 µM | [13] > 100 µM | [14] > 100 µM

CC(=O)NC(CC(C)C)C(=O)NC(Cc1ccccc1)C(=S)N1CCCC1 (stereo not drawn)
inactive: [1] > 100 µM | [2] 74.8 µM | [3] > 100 µM | [4] > 100 µM | [15] > 100 µM | [5] > 100 µM | [6] > 100 µM | [7] > 100 µM | [8] > 100 µM | [9] > 100 µM | [10] > 100 µM | [11] > 100 µM | [12] > 100 µM | [13] > 100 µM | [14] > 100 µM

COC(=O)C1CCc2c1c(=O)n1c([nH]c3ccccc31)c2C#N (stereo not drawn)
inactive: [1] > 100 µM | [2] > 100 µM | [3] > 100 µM | [4] > 100 µM | [15] > 100 µM | [5] > 100 µM | [6] > 100 µM | [7] > 100 µM | [8] > 100 µM | [9] > 100 µM | [10] > 100 µM | [11] > 100 µM | [12] > 100 µM | [13] > 100 µM | [14] > 100 µM

CC(C)(C)c1ccc(OC2CCO2)cc1 (stereo not drawn)
inactive: [1] 24.3 µM | [2] 27.9 µM | [3] 53.8 µM | [4] 43.2 µM | [15] 35.4 µM | [5] 34.5 µM | [6] 25.9 µM | [7] 61.2 µM | [8] 33.6 µM | [9] 23.1 µM | [11] 35.1 µM | [12] 23.6 µM | [13] > 100 µM | [14] 46.9 µM

COC(=O)C1C=CCC2CCCCC21N1CCCC1 (stereo not drawn)
inactive: [1] 55.2 µM | [2] 87.7 µM | [3] 44 µM | [4] > 100 µM | [15] 34 µM | [5] > 100 µM | [6] 53.6 µM | [7] 71.8 µM | [8] 63.5 µM | [9] 59.3 µM | [10] > 100 µM | [11] > 100 µM | [12] 53.8 µM | [13] > 100 µM | [14] > 100 µM

COc1cc(/C=C\c2ccccn2)cc(OC)c1OC
inactive: [1] > 100 µM | [2] > 100 µM | [3] 47.3 µM | [4] 78.5 µM | [15] 16.4 µM | [5] > 100 µM | [6] 63.8 µM | [7] 85.7 µM | [8] > 100 µM | [9] 67.3 µM | [10] 64 µM | [11] 48.5 µM | [12] 70 µM | [14] > 100 µM
